Test results reported in patent US11692194B2, “Modulating expression of polypeptides via new gene switch expression systems” (Precigen, Inc., priority 2017, dated 2023).
“Also recorded” adds a separate entry of the source.

Assays:
[1] = test system: gene switch components VP16/RxR and Gal4/EcR controlling mbIL-15 in CD19 CAR-T cells; experiment: T cell activation and ligand specific control of mbIL-15 (NFAT6-IL2 promoter driven gene switch), flow cytometry; format: cell-based, human
Protocol: Sleeping Beauty transposons were designed to stably express CD19-specific CAR, a cell tag as well as gene switch-controlled mbIL-15. Expression of one or both of gene switch components (e.g. VP16/RxR and Gal4/EcR) were performed under the control of a T cell activation specific promoter. In this example, a T cell activation dependent promoter generated by 6×NFAT response element fused to minimal IL-2 promoter (NFAT6-IL2 promoter) was utilized to drive expression of gene switch components—VP16-RxR and/or Gal4-EcR fusion proteins for conditional expression of mbIL-15. When components of the gene switch are under the control of NFAT6-IL2 promoter, expression of mbIL-15 requires two conditions to be met: 1) T cells are activated; and 2) activator ligand, veledimex, to be present. SB transposons construct combinations shown in FIG. 20A were transfected along with SB11 transposase in donor T cells. […]
The following day (day 1) cells were counted, and CAR expression was measured by flow cytometry. […]
For flow cytometry analysis to assess expression of various markers and gene(s) of interest cells were gently resuspended and cell number and viability were measured using Trypan blue exclusion method with the Countess instrument. Cell diameter size was also recorded. […] The prepared antibody cocktails and associated fluorescence minus one/isotype control were added to stain the cell samples, and then the samples were incubated on ice for 30 min. […] All samples were run on a LSR II flow cytometer, a Fortessa X-20 flow cytometer (BD Biosciences) or iQue Screener Plus (Intellicyt) and data was analyzed using FlowJo V10 (TreeStar, Ashland, Oreg.) or iQue Screener software. […]
Non-activated or activated CAR-T cells were harvested and either 100 nM veledimex or DMSO (to keep DMSO concentration constant in both cultures) was added to the cultures. […] CAR and mbIL-15 expression was quantified in either resting (FIG. 20B) or activated T cells in presence of absence of veledimex (FIG. 20C: ConA 1 μg/mL; ConA 5 μg/mL: FIG. 20D, PMA/Ionomycin: FIG. 20E).

[2] = test system: inducible IL-12 constructs (XON-61 or XON-62) in EGFRvIII-CAR-T cells; experiment: Veledimex ON-OFF cycling of IL-12 in EGFRvIII-CAR-T cells; format: cell-based
Protocol: For each ON-OFF cycle, veledimex was first added (ON) at previously mentioned concentrations (typically between 20-100 nM) to cell cultures for 2-3 days. An aliquot of cells was harvested and analyzed for expression (ON) of various proteins by flow cytometry and/or ELISA at noted time points. Remaining cell culture was then washed and resuspended in complete medium without veledimex (OFF) and cultured for up to 5 days. Aliquots of cells were harvested and analyzed for expression (OFF) at times mentioned by flow cytometry and/or ELISA as noted above. Veledimex ON-OFF cycle(s) can be repeated again with remaining cell culture by repeating the process.
The effect of repeated treatments and withdrawals of veledimex to EGFRvIII-CAR-T cells harboring an inducible IL-12 gene was determined in vitro both in the presence and absence of antigen specific T cell activation by co-culture with AaPCs. In the first cycle (ON-OFF) of ligand treatment, CAR-T cells (10^6/ml) expanded ex vivo by four successive rounds of stimulation with EGFRvIII^+ AaPCs were treated with DMSO or veledimex and cultured in the presence or absence of AaPCs in media containing IL-21 and IL-2. After 48 hours post-treatment, cells were washed thoroughly to remove ligand and cultured in a new culture vessel in media containing IL-21 and IL-2 for 5 days. Culture supernatants harvested between 24-120 hours post-treatment were then analyzed for expression of IL-12 and IFNγ.
In the second cycle (ON-OFF) of ligand treatment, CAR-T cells from cultures treated with DMSO or veledimex in the presence of AaPCs in cycle 1 were collected at 5 days after withdrawal of veledimex (in cycle 1) and subjected to a second cycle of ligand treatment with DMSO or veledimex in the presence or absence of antigen specific T cell activation by co-culture with AaPCs. After 48 hours post-treatment, cells were washed thoroughly to remove ligand and cultured in a new culture vessel in media containing IL-21 plus IL-2 for 5 days. Culture supernatants harvested between 24-120 hours post-treatment were then analyzed for expression of IL-12 and IFNγ.

For CCC[C@@H](N(NC(=O)c1cccc(OC)c1CC)C(=O)c1cc(C)cc(C)c1)C(C)(C)C [veledimex, N-[(1R)-1-(1,1-dimethylethyl)butyl]-N′-(2-ethyl-3-methoxybenzoyl)-3,5-dimethylbenzohydrazide], the “mbIL-15 expression in activated CAR-T cells with gene switch components under NFAT6-IL-2 promoter” value ([1]; constructs #3, 4 and 6, ConA 1 or 5 μg/mL or PMA/Ionomycin, 100 nM veledimex) was “exhibited expression of mbIL-15; also recorded: dependent on T cell activation (with addition of ConA) and presence of veledimex”, the “mbIL-15 expression in absence of T cell activation” value ([1]; resting CAR-T cells, 100 nM veledimex, at least 24 hours) was “only CAR-T cells that harbor transposons for expression of gene switch components (e.g. VP16/RxR and Gal4/EcR) under a constitutive promoter were able to express mbIL-15” and the “levels of mbIL-15 expression versus level of T cell activation” value ([1]; veledimex at fixed concentration, ConA 1 vs 5 μg/mL) was “increased with level of T cells activation”. For the same molecule, the “IL-12 induction in cycle 2 after veledimex versus DMSO in cycle 1” value ([2]; 48 h post-ligand treatment in cycle 2, with EGFRvIII^+ AaPCs) was “increased IL-12 induction”, the “IL-12 expression relative to DMSO” value ([2]; cycle 1, culture supernatants at 48 h post-treatment) was “increase in IL-12 expression” and the “levels of IL-12 induction with versus without antigen-specific stimulation” value ([2]; cycle 1, presence vs absence of AaPCs) was “enhanced in the presence of AaPC-mediated antigen-specific stimulation; also recorded: significantly lower in the absence of antigen-specific stimulation”. For the same molecule, the “control of IL-12 expression over two cycles of ligand treatment” value ([2]; prolonged culture, repeated addition and withdrawal) was “can be turned ON and OFF repeatedly; also recorded: can regulate IL-12 expression” and the “IL-12 expression after withdrawal of veledimex” value ([2]; withdrawal at 48 h post-treatment, presence and absence of AaPCs) was “reduction of IL-12 expression; also recorded: gradually reduced back to the baseline levels; also recorded: went down to baseline levels”.
